For 4 compounds, EC50 results are on record in article PMC3626661, “Functional Specificity of Sex Pheromone Receptors in the Cotton Bollworm Helicoverpa armigera” (PLoS ONE, 2013).

Common to all, as to test: two-electrode voltage clamp in Xenopus oocytes, dose-response
Holding throughout (format): cell-based
Background: In two-electrode clamp one electrode senses voltage and the other passes current.

In experiment [1] the target is T1, HarmOR13 (Helicoverpa armigera, UniProt A0A075TD52).
T1 construct: gene OR13; full-length ORF; with HarmOrco (HarmOR2)
T1 sequence (A0A075TD52 1-425): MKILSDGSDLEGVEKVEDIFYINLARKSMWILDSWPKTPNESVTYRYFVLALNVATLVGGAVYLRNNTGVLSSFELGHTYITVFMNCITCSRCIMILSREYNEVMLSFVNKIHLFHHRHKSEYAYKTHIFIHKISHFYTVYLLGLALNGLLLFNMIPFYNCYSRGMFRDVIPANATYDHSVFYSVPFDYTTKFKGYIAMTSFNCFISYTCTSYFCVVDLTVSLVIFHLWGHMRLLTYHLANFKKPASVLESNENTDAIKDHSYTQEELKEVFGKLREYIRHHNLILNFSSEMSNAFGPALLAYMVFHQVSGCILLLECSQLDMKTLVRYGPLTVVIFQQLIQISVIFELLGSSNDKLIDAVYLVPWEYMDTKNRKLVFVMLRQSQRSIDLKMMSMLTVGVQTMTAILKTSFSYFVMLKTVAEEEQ
T1 sequence (A0A075TD45 1-473 partner): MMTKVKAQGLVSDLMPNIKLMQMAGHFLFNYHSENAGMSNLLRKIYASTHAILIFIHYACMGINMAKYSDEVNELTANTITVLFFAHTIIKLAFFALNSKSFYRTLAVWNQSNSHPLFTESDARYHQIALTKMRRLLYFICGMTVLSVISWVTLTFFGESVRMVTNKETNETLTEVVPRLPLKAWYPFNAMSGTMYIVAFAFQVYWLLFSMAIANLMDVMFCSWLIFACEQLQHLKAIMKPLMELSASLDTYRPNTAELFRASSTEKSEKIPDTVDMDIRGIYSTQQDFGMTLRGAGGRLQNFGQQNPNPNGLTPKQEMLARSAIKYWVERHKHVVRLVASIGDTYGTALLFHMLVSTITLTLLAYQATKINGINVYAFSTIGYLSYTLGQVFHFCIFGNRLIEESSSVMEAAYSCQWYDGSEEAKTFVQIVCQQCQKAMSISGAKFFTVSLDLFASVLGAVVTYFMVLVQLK

Experiment [2] addresses T2, HarmOR6 (Helicoverpa armigera, UniProt R4JSE3).
T2 construct: gene OR6; full-length ORF; with HarmOrco (HarmOR2)
T2 sequence (R4JSE3 1-425): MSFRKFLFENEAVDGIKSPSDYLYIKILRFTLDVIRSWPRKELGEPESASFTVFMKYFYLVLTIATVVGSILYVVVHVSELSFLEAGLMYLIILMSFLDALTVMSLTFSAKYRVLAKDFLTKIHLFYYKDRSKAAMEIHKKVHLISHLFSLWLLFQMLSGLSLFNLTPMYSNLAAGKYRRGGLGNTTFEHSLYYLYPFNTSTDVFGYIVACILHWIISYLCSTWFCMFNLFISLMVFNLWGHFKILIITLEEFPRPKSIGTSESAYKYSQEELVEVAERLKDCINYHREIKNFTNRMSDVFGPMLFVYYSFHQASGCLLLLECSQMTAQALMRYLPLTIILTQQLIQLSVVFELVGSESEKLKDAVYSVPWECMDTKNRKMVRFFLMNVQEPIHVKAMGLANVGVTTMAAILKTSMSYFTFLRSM
T2 sequence (A0A075TD45 1-473 partner): T1 sequence (A0A075TD45 1-473 partner)
From the text:
two-electrode voltage clamp in Xenopus oocytes, dose-response on HarmOR6 | Dose–response curve of HarmOR6/HarmOR2 Xenopus oocytes to Z9-16:Ald. | Dose–response curve of HarmOR6/HarmOR2 Xenopus oocytes to Z9-14:Ald.

For experiment [3], the target named is T3, HarmOR16 (Helicoverpa armigera, UniProt C6K7B8).
T3 construct: full-length ORF; with HarmOrco (HarmOR2)
T3 sequence (C6K7B8 1-422): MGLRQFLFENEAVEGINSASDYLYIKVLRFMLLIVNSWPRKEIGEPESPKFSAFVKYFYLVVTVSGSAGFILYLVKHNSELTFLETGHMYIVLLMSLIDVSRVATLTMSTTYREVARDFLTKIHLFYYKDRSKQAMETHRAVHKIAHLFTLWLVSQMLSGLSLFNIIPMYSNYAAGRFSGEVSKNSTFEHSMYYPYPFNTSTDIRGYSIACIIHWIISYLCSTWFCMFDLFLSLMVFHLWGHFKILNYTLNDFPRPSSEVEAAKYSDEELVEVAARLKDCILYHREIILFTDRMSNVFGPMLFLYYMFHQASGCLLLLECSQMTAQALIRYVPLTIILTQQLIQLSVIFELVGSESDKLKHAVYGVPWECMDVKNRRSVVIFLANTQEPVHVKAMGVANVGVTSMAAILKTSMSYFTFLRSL
T3 sequence (A0A075TD45 1-473 partner): T1 sequence (A0A075TD45 1-473 partner)
The text has this: two-electrode voltage clamp in Xenopus oocytes, dose-response on HarmOR16 | Dose–response curve of HarmOR16/HarmOR2 Xenopus oocytes to Z11-16:OH.

As usually defined, the EC50 is the concentration that produces a half-maximal response. Read a high EC50 as lower potency in that assay. In experiment [1], `CCCC/C=C\CCCCCCCCCC=O` [Z11-16:Ald, (Z)-11-hexadecenal] returned an EC50 of 1820 nM.

For the compound `CCCC/C=C\CCCCCCCC=O` [Z9-14:Ald, (Z)-9-tetradecenal], the EC50 in experiment [2] amounted to 4340 nM.

Turning to `CCCC/C=C\CCCCCCCCCCO` [Z11-16:OH, (Z)-11-hexadecen-1-ol], the response in experiment [3] was half-maximal at 299 nM (EC50).

`CCCCCC/C=C\CCCCCCCC=O` [Z9-16:Ald, (Z)-9-hexadecenal]: the EC50 in experiment [2] is 3530 nM.
